Structures are written as SMILES.

Format in all cases: cell-based, rhesus monkeys
Experiment [1] has as its system isolated peripheral vascular muscle cells (VMC) from large arteries of the foreleg. Kind of experiment: Averaged PKC signals in nicotine-stimulated VMC. Particulars: VMC pre-treated with wash of 4 ng/ml hormone, 10 μM nicotine; for peripheral-to-central PKC ratio: versus control; for change of PKC loci or intensity after nicotine stimulation: versus control values. The source says:
(§1) Single VMCs from large arteries of the foreleg of adult rhesus monkeys are isolated and studied both as freshly dispersed and as primary cultures. The short-term primary cultured cells (never passaged) maintain the characteristics of the source tissue for 2 to 3 weeks, including contraction, relaxation, receptors, and membrane electrical properties. VMCs are dissociated with collagenase and protease enzymes in a potassium glutamate solution (KG) that prevents loading with Na^+, Ca^2′, or Cl^− and results in a high proportion of viable, contracting cells. See, Self, D. A., et al., J. Vasc. Res. 31:359-366 (1994); and Rusch., N. J., et al., Physiology and Pathophysiology of the Heart, 999-1010 (1995), each of which is incorporated herein by reference. The cells prepared for culture are seeded at low density in cardiovascular culture solution for mammals, fifth generation (CV5M) on glass coverslips to facilitate selection of individual cells. VMCs are used for studies 7 to 14 days after attaching to coverslips.
(§2) Freshly dispersed or primary cultured VMCs on glass coverslips are placed in a chamber of laminar flow design and observed with a high numerical aperture water immersion objective. Ionic solution for mammals version 2 (ISM2) is continuously pumped through the chamber (at 1 ml/minute) to provide continuous equilibration and washout of drugs. After a 15 minutes equilibration period, VMC are loaded for 15 minutes at room temperature with 3 μM fluo 3 (Molecular Probes, Inc.) for sensing Ca^2+ and for 10 minutes with 30-100 nM hypericin (LC Laboratories) for reporting PKC. Individual VMC are stimulated by adding 20 μl of 10 μM nicotine over the individual cell. After 15 seconds under no-flow conditions, continuous flow of ISM2 was reinstated and a chamber volume of approximately 300 μl was maintained. Fluorescent images are taken at 1, 2, 5, 10, 15, 20 and 30 minutes after stimulation for Ca^2+ and at 3, 4, 9, 16, 21 and 31 minutes for PKC to evaluate subcellular distribution of these signals, and to determine VMC contraction.
(§3) ISM2 contains (in mM): 100 NaCl, 4 NaHCO3, 0.5 NaH2PO4, 4.7 KCl, 1.8 CaCl2, 0.41 […], 50 HEPES (pH 7.37), and 5.5 dextrose; KG solution contains (in mM); 140 K-glutamate, 16 NaHCO3, 0.5 NaH2PO4, 30 HEPES, and 16.5 dextrose at pH 7.3. CV5M contains: 4.0 mM L-glutamine, 10 μg/ml ciprofloxacin (Miles Pentex/Bayer Corporation), 50 mM HEPES (pH 7.3), and 16 mM NaHCO3 dissolved in 85% MEM-Earle's salts and 15% horse serum. Phenol red, known to have estrogenic activity, is omitted from all solutions.
One group of cells is pre-treated with a wash of 4 ng/ml of progesterone before stimulation with nicotine. A second group of cells is pre-treated with a wash of 4 ng/ml testosterone before stimulation. […]

Experiment [2] has the same test system. Kind of experiment: Averaged contractions (cell width) of nicotine-stimulated VMC. Particulars: primary cultured VMC pre-treated with wash of 4 ng/ml hormone, 10 μM nicotine; versus 0-min controls.
Excerpt: as §1
Freshly dispersed or primary cultured VMCs on glass coverslips are placed in a chamber of laminar flow design and observed with a high numerical aperture water immersion objective. […]
Normalized changes in cell widths from primary cultured VMC is determined.

Experiment [3] shares this test system. Kind of experiment: Averaged Ca2+ signals in nicotine-stimulated VMC. The note with it: VMC pre-treated with wash of 4 ng/ml hormone; for decrease in peripheral-to-central Ca2+ localization ratio / peak of Ca2+ increase after nicotine stimulation: 10 μM nicotine; for peak of Ca2+ increase after nicotine stimulation: versus non-treatment group; for whole cell Ca2+ response to nicotine stimulation: stimulated with 10 μM nicotine.
Excerpt: as §1, §2, §3
One group of cells is pre-treated with a wash of 4 ng/ml of progesterone before stimulation with nicotine. A second group of cells is pre-treated with a wash of 4 ng/ml testosterone before stimulation. A third group of cells, the “non-treatment group”, is pre-treated with a wash of normal saline before stimulation. A fourth group of cells, which forms the control group, is pre-treated with a wash of normal saline and followed by “stimulation” with normal saline.
Normalized (per pixel) changes in intracellular Ca^2+ levels are expressed as averages over whole VMC and as peripheral-to-central ratios. […] The ratio decreases because of Ca^2+ release from intracellular stores.

With `CC(=O)[C@H]1CC[C@H]2[C@@H]3CCC4=CC(=O)CC[C@]4(C)[C@H]3CC[C@]12C` [progesterone], in experiment [1], the “peripheral-to-central PKC ratio” value is “never significantly different from control” and the “change of PKC loci or intensity after nicotine stimulation” value is recorded as “fails to change PKC loci or intensity significantly from control values”. For the same compound, in experiment [2], the “VMC contractions (central cell widening)” value is listed as “significantly different from 0-min controls only in the first few minutes following stimulation”. In addition, in experiment [3], the “decrease in peripheral-to-central Ca2+ localization ratio” value is on record as “too small to be significant”, the “peak of Ca2+ increase after nicotine stimulation” value was “smaller peak than in the non-treatment group” and the “whole cell Ca2+ response to nicotine stimulation” value is on record as “only transiently stimulated by nicotine”.

Take `C[C@]12CC[C@H]3[C@@H](CCC4=CC(=O)CC[C@@]43C)[C@@H]1CC[C@@H]2O` [testosterone]: in experiment [1], the “peripheral-to-central PKC ratio” value is listed as “never significantly different from control” and the “change of PKC loci or intensity after nicotine stimulation” value was “fails to change PKC loci or intensity significantly from control values”. Further, in experiment [2], the “VMC contractions (central cell widening)” value is listed as “significantly different from 0-min controls only in the first few minutes following stimulation”. Moreover, in experiment [3], the “decrease in peripheral-to-central Ca2+ localization ratio” value was “too small to be significant”, the “peak of Ca2+ increase after nicotine stimulation” value is on record as “smaller peak than in the non-treatment group” and the “whole cell Ca2+ response to nicotine stimulation” value is recorded as “only transiently stimulated by nicotine”.
